# In publication PMC12998938, “Neutrophil store-operated Ca^2+ entry: A correctable biomarker of cystic fibrosis lung disease progression” (Journal of cystic fibrosis : official journal of the …, 2025):
# Key:
# [1] = tested on: ER Ca2+ store release in non-CF neutrophils; assay: Fluo-4 ER Ca2+ release, non-CF neutrophils; assay type: cell-based, human; conditions: 3 h pre-treatment, 1 μM thapsigargin, no extracellular Ca2+, 2 donors in triplicate
# Procedure: Isolated neutrophils were incubated with peptide or vehicle control for 3 h. For the final hour of treatment, cells were loaded with Fluo-4 direct (Thermofisher) for 45 min at 37°C and 15 min at room temperature as described.
# Fig. 3. ELD607 inhibits SOCE in non-CF and CF neutrophils. (A) and (B) Mean changes in fluo-4 fluorescence as a marker of cytoplasmic Ca^2+ levels in non-CF and CF neutrophils respectively before and after stimulation with 1 μM thapsigargin (Tg). Before stimulation, neutrophils were exposed to vehicle (0.1% DMSO in PBS), 10 μM ELD607 or scrambled peptide (control) for 3 h. N = 10 non-CF and 21 CF donors. Stats show ELD607 vs vehicle or scrambled peptide based on color. […] Neutrophils were stimulated with thapsigargin (1 μM) in the absence of extracellular Ca^2+ to allow the release of Ca^2+ stores to be measured. Extracellular Ca^2+ was then returned so that extracellular Ca^2+ influx could be measured. (C) Mean fold change in Fluo-4 fluorescence during ER store release in non-CF and CF neutrophils. […] (E) Mean fold change in fluo-4 fluorescence during Ca^2+ influx in non-CF and CF neutrophils. […]
# SOCE has 2 phases: release of Ca^2+ from ER stores and Ca^2+ influx from the extracellular space via Ca^2+ channels such as Orai1. […] Once the stores had emptied, extracellular Ca^2+ was reintroduced and Ca^2+ influx was measured (Fig. 3C–F). […]
# Orai1 = conditions: cartoon legend; reference not given; cited from earlier work
# Description: Fig. 6. Cartoon of SOCE in neutrophils in the absence (left) and presence (right) of ELD607. Left, activation of Gq-linked GPCRs by appropriate agonists (e.g. ATP) leads to formation of inositol triphosphate (IP3) and ER store Ca^2+ depletion. This in turn causes STIM1 to rapidly aggregate at ER-plasma membrane junctions where it causes Orai1 to activate and aggregate to provide a second, amplifying wave of Ca^2+ which triggers neutrophil degranulation, as well as activating other Ca^2+-dependent processes (not shown). Right, ELD607 binds to Orai1, causing it to be ubiquitinated, internalized ...
# CF neutrophils = assay: Neutrophil degranulation multiplex assay, CF neutrophils; assay type: cell-based, human; conditions: 3 h, 1 μM thapsigargin 30 min, vs vehicle, paired t-test
# Procedure: (§1) Neutrophils were immediately isolated by negative selection from deidentified blood samples using an EasySep human neutrophil isolation kit (Stem Cell Technologies) as described. Cytosolic Ca^2+ was measured using Fluo-4 as described. Protein lysate from isolated blood neutrophils was characterized by liquid chromatography with tandem mass spectrometry (LC-MS/MS) as described. Degranulation products in media were quantified by Luminex assay using a custom Bio-Plex human kit (BioRad) per the manufacturer’s protocol […]. Detailed methods for all experiments and measurements are provided in an online data supplement.
# (§2) Multiple neutrophil functions, including neutrophil degranulation, are Ca^2+ dependent. Neutrophil degranulation results in an increase in several proteases in the lung, including neutrophil elastase, a key driver of CF lung damage. Accordingly, we investigated the impact of ELD607 on neutrophil degranulation as a marker of Ca^2+-dependent neutrophilic function. We used a multiplex assay to quantify key granule proteins released into media after a 3 h pretreatment with 10 μM ELD607 or vehicle control followed by a 30 min stimulation with 1 μM thapsigargin. Levels of myeloperoxidase (MPO; primary granules), lactoferrin (specific granules) and matrix metalloproteinase-9 (MMP9; tertiary granules) release were similar between non-CF and CF neutrophils (Fig. 4A–C).
# (§3) Fig. 4. ELD607 inhibits degranulation in non-CF and CF neutrophils. Neutrophil degranulation (A-C) was assayed by measuring the concentration of representative constituents of (A) primary granules, MPO (non-CF, n = 9; CF, n = 13); (B) secondary granules, lactoferrin (non-CF, n = 12; CF, n = 17) and (C) tertiary granules, MMP-9 (non-CF, n = 9; CF, n = 12). […]
# (§4) Multiplex assay. […] Supernatant was collected and analyzed for a panel of neutrophil granule proteins (MPO, lactoferrin, MMP9) using a Bio-Plex human kit (BioRad) per the manufacturer’s protocol. Plates were then analyzed using a Bio-Plex MAGPIX System (BioRad).
# non-CF neutrophils = assay: Neutrophil degranulation multiplex assay, non-CF neutrophils; assay type: cell-based, human; conditions: 3 h, 1 μM thapsigargin 30 min, vs vehicle, paired t-test
# Procedure: as §1, §2, §3, §4
sequence,measurement,setting,value
"VHDIVNMLIRG [ELD607, size-optimized SPLUNC1/α6 peptidomimetic]",inhibition of ER Ca2+ release,[1],little effect
same,effect on Orai1,Orai1,"binds to Orai1, causing it to be ubiquitinated, internalized and degraded"
same,MMP9 release (tertiary granules),"CF neutrophils; n = 12, 10 μM",significantly reduced
same,MPO release (primary granules),"CF neutrophils; n = 13, 10 μM",significantly reduced
same,lactoferrin release (specific/secondary granules),"CF neutrophils; n = 17, 10 μM",significantly reduced
same,MMP9 release (tertiary granules),"non-CF neutrophils; n = 9, 10 μM",significantly reduced
same,MPO release (primary granules),"non-CF neutrophils; n = 9, 10 μM",significantly reduced
same,lactoferrin release (specific/secondary granules),"non-CF neutrophils; n = 12, 10 μM",significantly reduced
